From patent US20090181003A1, “Regulation of S6 Kinsase Protein Activity and Related Methods” (priority 2005, published 2009)

Key:
S6K1 K516 acetylation = S6K1 K516 acetylation in serum-stimulated NIH 3T3 cells treated with signal transduction inhibitors (Ac-K516 immunoblot); type: cell-based; settings: 50 nM Rapamycin, 20 μM LY294002 or 10 μM PD98059 30 minutes before serum stimulation, lysed after 1 hr
Protocol: In this study, NIN3T3 cells were starved and stimulated with serum for various period of time. Total cell lysates were separated by SDS-PAGE and immunoblotted with acetyl-K516 antibodies. In FIG. 10B, the effect of various cell signalling inhibitors on K516 acetylation is shown. In this study, NIH3T3 cells were starved and treated with 50 nM Rapamycin (mTor inhibitor), 20 μM LY294002 (phosphatidylinositol 3′-kinase inhibitor), 10 μM PD98059 (MAP kinase inhibitor) or vehicle alone thirty minutes before stimulation with serum. Then, cells were stimulated with serum for one hour and lysed. The supernatants of total lysates were separated by SDS-PAGE and Western blotted with acetyl-K516 antibodies. […] The wtS6K and K516R mutants were transiently expressed in Hek293 cells. Immunoprecipitated recombinant S6Ks and total cell lysates were resolved by gel electrophoresis and immunoblotted with antibodies specific for EE tag, pT412 and actin.
Furthermore, the effect of signal transduction inhibitors on K516 acetylation was studied in NIH 3T3 cell. In this experiment, cells were serum starved and treated with rapamycin, LY and PD for 30 minutes before serum stimulation. Cells were lysed 1 hr hour after stimulation and the lysates separated by SDS-PAGE and immunoblotted with Ac-K516, pT412 antibodies.

S6 kinases = assay: S6 kinase acetylation in HEK 293 cells cotransfected with EE-tagged S6 kinases and p300 (anti-acetylated lysine immunoblot); type: cell-based; settings: HEK 293 cells with overexpressed p300; TSA 660 nM for 12 hours
Protocol: In FIG. 2A, recombinant S6 kinases were acetylated in vitro using the purified acetyltransferase domain of p300 or full length PCAF and ^14C-labelled acetyl CoA. Proteins were resolved by SDS-PAGE and acetylated proteins were analysed by phosphorimaging (Bio-rad). In FIG. 2B, recombinant S6K2 or GST were subject to in vitro acetylation reactions with p300 and 14C AcCoA. Recombinant PKB/Akt, PKCa, PDK1 and PI3K (p85a/p110a) were purified using baculovirus expression system. In vitro acetylation assay was carried out as previously described. In FIG. 2D, HEK 293 cells were transfected with S6 kinases in the absence or presence of Gal4-p300 as shown. Cells were treated with medium containing either solvent control or TSA to a final concentration of 660 nM for twelve hours prior to harvesting. Recombinant S6 kinases were immunoprecipitated using the EE-antibody and acetylated S6 kinase was detected by western blotting with polyclonal acetylated lysine antibodies (Upstate). The level of immunoprecipitated S6K1 and S6K2 was analysed by reprobing the membranes with specific antibodies. The expression of Gal4-p300 was tested in total lysates using anti-Gal4 antibodies.
In order to test whether S6 kinase proteins are subject to acetylation within cells, HEK 293 cells were cotransfected with EE-tagged S6 kinases and p300. […]

S6 kinase = S6 kinase activation in C2C12 myoblasts by western blotting (pT412, phospho-rpS6), TSA dose course; type: cell-based; settings: 18 hours, doses of 500 nM TSA and above
Protocol: In FIG. 6A (upper panel), C2C12 myoblasts were treated for 18 hours with increasing concentrations of TSA or with the structurally unrelated HDAC inhibitor, sodium butyrate. Endogenous S6 kinase activity was assessed by western blotting against pT412 and against phosho-rpS6. In another experiment, C2C12 cells were treated with 1 μM TSA or control for the times shown and S6 kinase activity was measured by in vitro kinase assay using purified ribosomes as substrate (FIG. 6B). A representative autoradiograph is shown beneath the graph.
Since phosphorylation of multiple residues in S6 kinases has a potent effect on their kinase activity, it was interesting to see whether acetylation, an alternative post-translational modification, may also modulate the S6 kinase enzyme activity. Although kinase acetylation has not been described to date, there are examples of enzymes whose activity is regulated by p300-mediated acetylation, including Fen 1 (Hasan et al. (2001) Mol. Cell. 7, 1221-1231) and DNA polymerase beta (Hasan et al. (2002) Mol. Cell. 10, 1213-1222). In order to test whether S6 kinase acetylation may affect its kinase activity in vivo, C2C12 myoblasts were treated with a dose course of TSA. S6 kinase activation was analysed by western blotting with an antibody specific for phospho-threonine 412 and also with an antibody against the phosphorylated form of rpS6. […]

S6K = S6K activity after deacetylase inhibition in a range of cell types (western blot, immune complex kinase assay); type: cell-based
Protocol: (§1) (A) The cell lines indicated (see text) were treated with TSA and nicotinamide for eight hours. Following lysis, proteins were resolved by SDS-PAGE and western blots were probed as labelled to evaluate S6K activation. (B) MKOC cells (see text) were treated as in (A) and analysed by western blotting. S6K1 was also immunoprecipitated from lysates and subjected to immune complex kinase assay.
(§2) Histone deacetylase inhibitors downregulate S6K activity in a range of different cell types. In order to test the model that S6K acetylation may be playing a role in its de-activation, the effect of TSA on S6K activity was analysed in a number of cell types, some of which contain mutations in the pathways leading to S6K activation, thus affording a genetic analysis of this phenomenon. […] PC-3 is a PTEN-null prostate cancer cell line in which basal PKB and S6K activation is high due to deregulation of PI3K signalling. […] The MKOC cell line was derived from a renal tumour removed from a Tsc2^−/− mouse. Since these cells lack Tsc2, S6K activity is uncoupled from both PKB and the tuberous sclerosis complex heterodimer. […] It should be noted that, although the same trend (reduced S6K phosphorylation and activity following treatment with deacetylase inhibitors) is seen in all the cell lines tested, the magnitude of this effect does vary. […]

4EBP1 (target of mTOR) = assay: Phospho-4EBP1 blotting in MKOC cells; type: cell-based, mouse; settings: TSA treatment
Protocol: as §1, §2

[1] = target: T1, recombinant purified S6K1 (Homo sapiens, UniProt P23443); assay: In vitro kinase assay with recombinant purified S6K in presence or absence of deacetylase inhibitors; type: biochemical; settings: presence or absence of TSA and nicotinamide
T1 construct: made in house; host or cells: insect cells (baculovirus)
T1 sequence (P23443 whole entry): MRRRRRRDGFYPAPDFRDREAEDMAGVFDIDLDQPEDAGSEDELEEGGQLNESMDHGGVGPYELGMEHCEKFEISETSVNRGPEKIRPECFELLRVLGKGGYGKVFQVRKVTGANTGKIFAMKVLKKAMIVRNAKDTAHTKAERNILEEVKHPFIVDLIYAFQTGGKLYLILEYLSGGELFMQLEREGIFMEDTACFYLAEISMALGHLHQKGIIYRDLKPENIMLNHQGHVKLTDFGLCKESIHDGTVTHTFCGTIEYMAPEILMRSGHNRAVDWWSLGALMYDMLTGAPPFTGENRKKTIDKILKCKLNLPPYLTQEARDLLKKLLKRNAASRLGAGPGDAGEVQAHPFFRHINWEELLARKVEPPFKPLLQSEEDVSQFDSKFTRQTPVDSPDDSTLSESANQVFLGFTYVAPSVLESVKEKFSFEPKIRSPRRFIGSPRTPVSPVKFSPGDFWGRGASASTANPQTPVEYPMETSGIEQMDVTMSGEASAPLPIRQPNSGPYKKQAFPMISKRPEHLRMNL
Protocol: as §1
Firstly, that TSA is not a specific inhibitor of HDAC activity but that it is also a direct S6K inhibitor in the classical sense. […] In order to test the former explanation, that TSA is a direct S6K inhibitor, in vitro kinase assays were conducted using recombinant purified S6K in the presence or absence of TSA and nicotinamide (FIG. 6C).

With `COc1cccc(-c2cc(=O)c3ccccc3o2)c1N` [PD98059] the “acetylation of S6K1 at K516” value (S6K1 K516 acetylation) was “not affected”.

`CC(/C=C/C(=O)NO)=C\[C@@H](C)C(=O)c1ccc(N(C)C)cc1` [TSA, Trichostatin A] was tested, and the “level of S6 kinase acetylation” value (S6 kinases) was “significantly increased”, the “S6 kinase activation (phospho-threonine 412 and S6 protein phosphorylation)” value (S6 kinase) was “potently inhibited” and the S6K activity (S6K; MKOC cells (Tsc2-/- mouse renal tumour)) was “reduction of S6K activity”. The S6K activity (S6K; PC-3 cells (PTEN-null prostate cancer cell line)) was “inhibited”, the phospho-4EBP1 phosphorylation status (4EBP1 (target of mTOR)) was “unaffected” and the “S6K activity in vitro (direct kinase inhibition)” value [1] was “does not indicate that TSA inhibits S6K activity in vitro”.
